The text below walks through data of patent US20060223996A1, “IL-12 modulatory compounds” (Synta Pharmaceuticals Corp., priority 2004, published 2006).

In general, IC50 refers to the concentration at which inhibition is half-maximal.

In the assay the test system is IL-12. In words: Human in vitro assay: inhibition of IL-12 production in IFNγ/LPS- or IFNγ/SAC-stimulated human PBMC or THP-1 cells (ELISA). As to conditions: read-out: IC50 Range (representative in vitro IC50 data). The class given is cell-based. An outline of the steps:
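PBMC (5×10^5 cells/well) primed with IFNγ 30 U/mL for 22 h then LPS 1 μg/mL, or IFNγ 100 U/mL then SAC 0.01%; THP-1 primed with IFNγ 100 U/mL for 22 h then SAC 0.025%, with compound in 0.25% DMSO. Supernatant IL-12 p70/p40 measured by sandwich ELISA after 18 h; IC50 derived; viability by MTS.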
Background: ELISA stands for enzyme-linked immunosorbent assay.
For `Cc1cc(C)cc(NC(=O)c2cc(OCCN3CCOCC3)nc(N3CCOCC3)n2)c1` [Compound 282, 2-Morpholin-4-yl-6-(2-morpholin-4-yl-ethoxy)-pyrimidine-4-carboxylic acid (3,5-dimethyl-phenyl)-amide], the IC50 is less than 1000 nM.

As to `O=C(Nc1cccnc1)c1cc(OCCN2CCOCC2)nc(N2CCOCC2)n1` [Compound 292, 2-Morpholin-4-yl-6-(2-morpholin-4-yl-ethoxy)-pyrimidine-4-carboxylic acid pyridin-3-ylamide], the IC50 is no less than 1000 nM.

For the molecule `CCc1c[nH]c2ccc(NC(=O)c3cc(N4CCCCC4)nc(N4CCOCC4)n3)cc12` [Compound 179, 2-Morpholin-4-yl-6-piperidin-1-yl-pyrimidine-4-carboxylic acid (3-ethyl-1H-indol-5-yl)-amide], the IC50 is less than 1000 nM.

Regarding `Cc1[nH]c2ccc(NC(=O)c3cc(OCCN4CCOC4=O)nc(N4CCOCC4)n3)cc2c1C` [Compound 21, 2-Morpholin-4-yl-6-[2-(2-oxo-oxazolidin-3-yl)-ethoxy]-pyrimidine-4-carboxylic acid (2,3-dimethyl-1H-indol-5-yl)-amide], the half-inhibitory concentration (IC50) was less than 1000 nM.

Regarding `Cc1cc(NC(=O)Nc2cc(OCCN3CCOCC3)nc(N3CCOCC3)n2)ccc1C(C)C` [Compound 329, 1-(4-Isopropyl-3-methyl-phenyl)-3-[2-morpholin-4-yl-6-(2-morpholin-4-yl-ethoxy)-pyrimidin-4-yl]-urea], the IC50 is less than 1000 nM.

Turning to `CON(CCN1CCOCC1)c1cc(C(=O)Nc2ccc3[nH]c(C)c(C)c3c2)nc(N2CCOCC2)n1` [Compound 195, N-(2,3-dimethyl-1H-indol-5-yl)-6-(methoxy(2-morpholinoethyl)amino)-2-morpholinopyrimidine-4-carboxamide], the IC50 was less than 1000 nM.

Turning to `Cc1[nH]c2ccc(NC(=O)c3cc(NCC(=O)O)nc(N4CCOCC4)n3)cc2c1C` [Compound 96, [6-(2,3-Dimethyl-1H-indol-5-ylcarbamoyl)-2-morpholin-4-yl-pyrimidin-4-ylamino]-acetic acid], the IC50 was less than 1000 nM.

As to `O=C(Nc1cc(N2CCOCC2)nc(OCCc2ccccn2)n1)c1ccc2[nH]ccc2c1` [Compound 74, 1H-Indole-5-carboxylic acid [6-morpholin-4-yl-2-(2-pyridin-2-yl-ethoxy)-pyrimidin-4-yl]-amide], the half-inhibitory concentration (IC50) is no less than 1000 nM.

For the molecule `Cc1[nH]c2ccc(NC(=O)c3cc(NCC(=O)N4CCOCC4)nc(N4CCOCC4)n3)cc2c1C` [Compound 89, 2-Morpholin-4-yl-6-(2-morpholin-4-yl-2-oxo-ethylamino)-pyrimidine-4-carboxylic acid (2,3-dimethyl-1H-indol-5-yl)-amide], the IC50 was less than 1000 nM.

As to `COCCN(C)c1cc(C(=O)Nc2ccc3[nH]c(C)c(C)c3c2)nc(N2CCOCC2)c1` [Compound 158, 4-[(2-Methoxy-ethyl)-methyl-amino]-6-morpholin-4-yl-pyridine-2-carboxylic acid (2,3-dimethyl-1H-indol-5-yl)-amide], the half-maximal inhibitory concentration (IC50) was less than 1000 nM.

As for `O=C(Nc1cc(OCCN2CCOCC2)nc(N2CCOCC2)n1)Nc1nc2ccc(Cl)cc2s1` [Compound 139, 1-(6-Chloro-benzothiazol-2-yl)-3-[2-morpholin-4-yl-6-(2-morpholin-4-yl-ethoxy)-pyrimidin-4-yl]-urea], the IC50 is less than 1000 nM.

Consider `COCCN(C)c1cc(C(=O)Nc2ccc3nc(C)ccc3c2)nc(N2CCOCC2)n1` [Compound 202, 6-((2-methoxyethyl)(methyl)amino)-N-(2-methylquinolin-6-yl)-2-morpholinopyrimidine-4-carboxamide], for which the half-inhibitory concentration (IC50) was no less than 1000 nM.

As to `Cc1[nH]c2ccc(NC(=O)c3cc(N(C)CCO)nc(N4CCOCC4)n3)cc2c1C` [Compound 189, N-(2,3-dimethyl-1H-indol-5-yl)-6-((2-hydroxyethyl)(methyl)amino)-2-morpholinopyrimidine-4-carboxamide], the IC50 was less than 1000 nM.
